Structures can show the parent of a compound that is named as a salt.
Molecular target: T1, human mAChR M4 (Homo sapiens, UniProt P08173)
T1 sequence (P08173 1-479): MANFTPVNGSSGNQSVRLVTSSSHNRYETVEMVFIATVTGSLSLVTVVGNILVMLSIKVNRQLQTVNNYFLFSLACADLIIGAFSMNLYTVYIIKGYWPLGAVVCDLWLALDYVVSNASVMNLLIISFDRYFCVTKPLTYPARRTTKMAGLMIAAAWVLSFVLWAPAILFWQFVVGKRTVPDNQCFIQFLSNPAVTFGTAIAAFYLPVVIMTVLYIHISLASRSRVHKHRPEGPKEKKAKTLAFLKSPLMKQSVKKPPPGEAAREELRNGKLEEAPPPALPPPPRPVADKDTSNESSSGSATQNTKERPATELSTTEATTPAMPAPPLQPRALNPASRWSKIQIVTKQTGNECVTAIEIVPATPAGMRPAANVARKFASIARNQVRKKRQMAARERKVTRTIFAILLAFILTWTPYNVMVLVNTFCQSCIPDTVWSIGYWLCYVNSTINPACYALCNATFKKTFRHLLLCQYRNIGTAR
Experiment: mAChR M4 cell-based functional assay (calcium flux), human M4
Settings: for EC50: calcium flux; for Emax: % ACh maximum at 30 μM

[1] = Human M4 EC50 (nM), Table 10, PAM activity with EC20 acetylcholine
[2] = Human M4 EC50 (nM), Table 11, PAM activity with EC20 acetylcholine
[3] = Human M4 EC50, CHO-K1 hM4-Gqi5 cells, increase in EC20 acetylcholine response

EC50 [1] [nM] | Emax (Table 10) [%] | Emax (Table 11) [%] | Structure (SMILES) | further results
971 | 59.3 |  | Cc1nnc2sc3c(NCc4ccc(Oc5ccccn5)cc4)ncnc3c2c1C [Compound 110, 3,4-dimethyl-N-[[4-(2-pyridyloxy)phenyl]methyl] pyrimido[4′,5′:4,5]thieno [2,3-c]pyridazin-8-amine hydrochloride] | 
172 | 30.9 |  | Cc1nnc2sc3c(N4CCC(C(C)(C)O)C4)ncnc3c2c1C (centres unmarked) [Compound 171, 2-[1-(3,4-dimethylpyrimido [4′,5′:4,5]thieno[2,3-c]pyridazin-8-yl)pyrrolidin-3-yl]propan-2-ol] | 
 |  | 83.8 | Cc1nnc2sc3c(NCc4ccc(C(=O)NC5CCC5)c(Cl)c4)ncnc3c2c1C [Compound 316, 2-chloro-N-cyclobutyl-4-[[(3,4-dimethylpyrimido [4′,5′:4,5]thieno[2,3-c]pyridazin-8-yl)amino]methyl]benzamide] | EC50 [2]: 216 nM
 |  | 100 | [2H]C([2H])(Nc1ncnc2c1sc1nnc(C)c(C)c12)c1ccc(C(C)(C)O)cc1 [Compound 369, 2-[4-[dideuterio-[(3,4-dimethylpyrimido[4′,5′:4,5]thieno[2,3-c]pyridazin-8-yl)amino]methyl]phenyl] propan-2-ol] | 
 |  | 64.8 | Cc1nnc2sc3c(N4CC[C@H](Oc5ccc(C#N)cc5)C4)ncnc3c2c1C [Compound 363, 4-[(3S)-1-(3,4-dimethylpyrimido[4′,5′:4,5]thieno[2,3-c]pyridazin-8-yl)pyrrolidin-3-yl] oxybenzonitrile dihydrochloride] | EC50 [2]: 298 nM
84.3 | 80.1 |  | Cc1nnc2sc3c(N4CC(Nc5ccnc(F)c5F)C4)ncnc3c2c1C [Compound 161, N-[1-(3,4-dimethylpyrimido[4′,5′:4,5]thieno[2,3-c]pyridazin-8-yl)azetidin-3-yl]-2,3-difluoro-pyridin-4-amine; 2,2,2-trifluoroacetic acid] | 
 |  |  | Cc1nc2oc3c(NC4CC4c4ccc(F)c(F)c4)ncnc3c2c(C)c1Cl (centres unmarked) [Compound 51, 8-chloro-N-[2-(3,4-difluorophenyl)cyclopropyl]-7,9-dimethyl-pyrido [3′,2′:4,5]furo[3,2-d]pyrimidin-4-amine hydrochloride] | Emax (Human M4): 70%; EC50 [3]: 7840 nM
2100 | 52.9 |  | Cc1nnc2sc3c(N4CC(C(N)=O)C4)ncnc3c2c1C [Compound 104, 1-(3,4-dimethylpyrimido [4′,5′:4,5]thieno[2,3-c]pyridazin-8-yl)azetidine-3-carboxamide] | 
 |  |  | Cc1nnc2sc3c(NC4CC4)ncnc3c2c1C [Compound 25, N-cyclopropyl-3,4-dimethylpyrimido [4′,5′:4,5]thieno[2,3-c] pyridazin-8-amine] | Emax (Human M4): 79%; EC50 [3]: 468 nM
 | 61.1 |  | Cc1nnc2oc3c(NCc4cccc(C5(O)CCC5)c4)ncnc3c2c1C [Compound 300, 1-[3-[[(3,4-dimethylpyrimido [4′,5′:4,5]furo[2,3-c]pyridazin-8-yl)amino]methyl]phenyl]cyclobutanol] | 
5510 | 40.6 |  | Cc1c(Cl)cnc2sc3c(NCc4ccc5c(c4)CC(C)(C)O5)ncnc3c12 [Compound 233, 8-chloro-N-[(2,2-dimethyl-3H-benzofuran-5-yl)methyl]-9-methyl-pyrido [3′,2′:4,5]thieno[3,2-d] pyrimidin-4-amine] | 
 |  | 94.7 | Cc1nnc2sc3c(NCc4ccc5c(c4)COC5(C)C)ncnc3c2c1C [Compound 372, N-[(1,1-dimethyl-3H-isobenzofuran-5-yl)methyl]-3,4-dimethyl-pyrimido[4′,5′:4,5]thieno [2,3-c]pyridazin-8-amine] | 
9160 | 59.5 |  | Cc1nnc2oc3c(NCc4ccc(C(C)(C)O)nc4)ncnc3c2c1C [Compound 308, 2-[5-[[(3,4-dimethylpyrimido [4′,5′:4,5]furo[2,3-c]pyridazin-8-yl)amino]methyl]-2-pyridyl]propan-2-ol] | 

— US10239887B2, “Positive allosteric modulators of the muscarinic acetylcholine receptor M4” (Vanderbilt University, priority 2016, dated 2019)
